Measurements from ChEMBL document CHEMBL1145682, “Bioactive compounds from Taiwania cryptomerioides” (J Nat Prod, 1997).
≈ marks a conversion by molar mass, not a printed value.

Key:
MCF7 = assay: Cytotoxicity against human MCF7 cells after 7 days by MTT assay; format: functional; settings: MCF7, 168 h, read-out: ED50 (the source's name)
[1] = Toxicity in Artemia salina; format: organism-based; settings: in vivo
A549 = assay: Cytotoxicity against human A549 cells after 7 days by MTT assay; format: functional; settings: A549, 168 h, read-out: ED50 (the source's name)
HT-29 = assay: Cytotoxicity against human HT-29 cells after 7 days by MTT assay; format: functional; settings: HT-29, 168 h, read-out: ED50 (the source's name)
Aedes aegypti = assay: Insecticidal activity against yellow fever mosquito larvae; format: functional

Structure (SMILES): CC1=C[C@H]2[C@@H](C(C)C)CC[C@@](C)(O)[C@H]2CC1=O
- EC50 (MCF7): 12.9 µg/mL (≈ 54.5 µM)
- LC50 [1]: 54.4 µg/mL (≈ 230 µM)
- EC50 (A549): 8.78 µg/mL (≈ 37.1 µM)
- EC50 (HT-29): 7.85 µg/mL (≈ 33.2 µM)
- LC50 (Aedes aegypti): 200 µg/mL (≈ 846 µM)

Structure (SMILES): CC1=C[C@@H]2[C@@H](CC1)[C@](C)(O)CC[C@H]2C(C)C
- EC50 (MCF7): 13.1 µg/mL (≈ 58.7 µM)
- LC50 [1]: 9.4 µg/mL (≈ 42.3 µM)
- EC50 (A549): 11.1 µg/mL (≈ 49.9 µM)
- EC50 (HT-29): 0.778 µg/mL (≈ 3.5 µM)
- LC50 (Aedes aegypti): 2 µg/mL (≈ 8.99 µM)

Structure (SMILES): CC(C)[C@@H]1CC[C@@](C)(O)[C@]2(O)[C@@H](O)C[C@@H](C)C[C@@H]12
- EC50 (MCF7): 41 µg/mL (≈ 160 µM)
- LC50 [1]: 84.8 µg/mL (≈ 331 µM)
- EC50 (A549): 13.3 µg/mL (≈ 52 µM)
- EC50 (HT-29): 12 µg/mL (≈ 46.8 µM)
- LC50 (Aedes aegypti): > 250 µg/mL

Structure (SMILES): CC1=C[C@@H]2[C@@H](CC1=O)[C@](C)(O)CC[C@H]2C(C)C
- EC50 (MCF7): 30.1 µg/mL (≈ 127 µM)
- LC50 [1]: 200 µg/mL (≈ 846 µM)
- EC50 (A549): 32.2 µg/mL (≈ 136 µM)
- EC50 (HT-29): 32.5 µg/mL (≈ 138 µM)
- LC50 (Aedes aegypti): 50 µg/mL (≈ 212 µM)

Structure (SMILES): COc1cccc2c1C(=O)c1c(O)c3c(c(O)c1C2=O)C[C@@](O)(C(=O)CO)C[C@@H]3O[C@H]1C[C@H](N)[C@H](O)[C@H](C)O1 [DOXORUBICIN]
- EC50 (MCF7): 0.189 µg/mL (≈ 0.348 µM)
- EC50 (A549): 0.00499 µg/mL (≈ 0.00918 µM)
- EC50 (HT-29): 0.0357 µg/mL (≈ 0.0657 µM)

Structure (SMILES): CC(C)c1cc2c(cc1O)[C@@]1(C)CCCC(C)(C)[C@@H]1CC2 [FERRUGINOL]
- EC50 (MCF7): 23.4 µg/mL (≈ 81.8 µM)
- LC50 [1]: 42.3 µg/mL (≈ 148 µM)
- EC50 (A549): 6.47 µg/mL (≈ 22.6 µM)
- EC50 (HT-29): 6.43 µg/mL (≈ 22.4 µM)
- LC50 (Aedes aegypti): 3 µg/mL (≈ 10.5 µM)

Structure (SMILES): O=C1OCc2c1cc1ccc3c(c1c2-c1ccc2c(c1)OCO2)OCO3 [HELIOXANTHIN]
- LC50 [1]: > 500 µg/mL
- LC50 (Aedes aegypti): 3 µg/mL (≈ 8.61 µM)
